Source: patent publication US10420740B2, “Baclofen formulations and methods for making same” (SAOL INTERNATIONAL LIMITED, priority 2011, dated 2019)

What was measured:
[1] = pH profile of baclofen prior to steam sterilization and 4-CPP impurity levels post-steam sterilization; type: physicochemical; set-up: unit not given here; settings: 4-CPP post-steam sterilization
From the text: In some embodiments, the present application provides methods and baclofen formulations having low 4-CPP concentrations by controlling the pH of the baclofen solution prior to steam sterilization, where the pH is in the range of between about 4.0 to about 7.0, the amount of 4-CPP formed is reduced, when the pH is raised to between about 5.0 to about 7.0 after heat sterilization. In some embodiments, the 4-CPP impurity levels are low at a pH of between about 4.0 to about 4.5. The pH profile of the baclofen, prior to steam sterilization and the 4-CPP impurity levels post-steam sterilization are shown below in Table A.

[2] = Stability of baclofen in sulfate or phosphate solutions over 9 weeks; type: physicochemical; settings: phosphate or sulfate buffer with NaCl, pH 6, aqueous buffer
Method: The formulations were stored at 37° C., ambient temperature, and 4° C. over 9 weeks. pH, drug concentration, and 4-CPP were measured. Physical properties, such as particulate, precipitation, color and the like were observed.

[3] = reported by some sources; equilibrium with particulate baclofen present; cited from earlier work
[4] = therapeutically effective intrathecal concentrations, injected into the intrathecal space of a patient; cited from earlier work
[5] = Rotarod (impaired motor skills) after intrathecal delivery to rats; type: in vivo; settings: equivalent doses, data not shown
Method: Studies were performed to examine the effects of different baclofen compositions delivered intrathecally to rats. In one study, the therapeutic response mediated by spinal GABA-b receptors (thermal analgesia) with a nonspecific side effect (impaired motor skills on the rotarod) caused by L or DL-baclofen were compared. Equivalent doses of L-baclofen and DL-baclofen (adjusted to deliver the same amount of L-baclofen) produced very similar analgesic activity in the thermal nociception assay, while D-baclofen was ineffective (data not shown).

[6] = Comparison of R isomer and racemic baclofen for solubility, stability and pH; type: physicochemical; settings: data not shown
From the text: Accordingly, the Examples presented herein, which employed a racemic mixture, are also applicable to the L-isomer […].

## NCC(CC(=O)O)c1ccc(Cl)cc1 (stereo not shown) [Baclofen, 4-amino-3-(p-chlorophenyl)butyric acid]
[1]; pH 4.0 prior to steam sterilization
  Impurity Level of 4-CPP: 1.7
[1]; pH 4.2 prior to steam sterilization
  Impurity Level of 4-CPP: 1.3
[1]; pH 4.4 prior to steam sterilization
  Impurity Level of 4-CPP: 1.1
[1]; pH 4.6 prior to steam sterilization
  Impurity Level of 4-CPP: 0.7
[1]; pH 4.8 prior to steam sterilization
  Impurity Level of 4-CPP: 0.5
[1]; pH 5.0 prior to steam sterilization
  Impurity Level of 4-CPP: 0.4
[1]; pH 5.2 prior to steam sterilization
  Impurity Level of 4-CPP: 0.4
[1]; pH 5.4 prior to steam sterilization
  Impurity Level of 4-CPP: 0.5
[1]; pH 5.6 prior to steam sterilization
  Impurity Level of 4-CPP: 0.6
[1]; pH 5.8 prior to steam sterilization
  Impurity Level of 4-CPP: 0.7
[1]; pH 6.0 prior to steam sterilization
  Impurity Level of 4-CPP: 0.8
[1]; pH 6.2 prior to steam sterilization
  Impurity Level of 4-CPP: 0.9
[1]; pH 6.4 prior to steam sterilization
  Impurity Level of 4-CPP: 1.1
[1]; pH 6.6 prior to steam sterilization
  Impurity Level of 4-CPP: 1.2
[1]; pH 6.8 prior to steam sterilization
  Impurity Level of 4-CPP: 1.4
[1]; pH 7.0 prior to steam sterilization
  Impurity Level of 4-CPP: 1.5
[2]
  solubility at 9 weeks: ≥ 4000 µg/mL
[3]
  upper limit on room temperature aqueous solubility: about 4 mg/mL
[4]
  plasma concentrations, intrathecal relative to oral administration: 100 times less

## NC[C@H](CC(=O)O)c1ccc(Cl)cc1 [D-baclofen]
[5]
  motor impairment on the rotarod: no significant effect

## NC[C@H](CC(=O)O)c1ccc(Cl)cc1 [L-baclofen]
[5]
  motor impairment on the rotarod: statistically less motor impairment on the rotarod than DL-baclofen

## NC[C@H](CC(=O)O)c1ccc(Cl)cc1 (single isomer, unassigned) [R isomer]
[6]
  solubility, stability and pH relative to racemic mixtures of baclofen: behave essentially the same
